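Protocol summary: plate cells (96-well), add compound at 5 concentrations, incubate 48 h, interpolate endpoints linearly. At the TGI there is no net growth.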
Legend:
Test in all cases: NCI-60 cell line screen, 48 h
SF-539 CNS = test system: SF-539 CNS
UO-31 renal = test system: UO-31 renal
OVCAR-5 ovarian = test system: OVCAR-5 ovarian
IGROV1 ovarian = test system: IGROV1 ovarian
SK-OV-3 ovarian = test system: SK-OV-3 ovarian
SW-620 colon = test system: SW-620 colon
RXF 393 renal = test system: RXF 393 renal
COLO 205 colon = test system: COLO 205 colon
SK-MEL-28 melanoma = test system: SK-MEL-28 melanoma
NCI-H23 lung = test system: NCI-H23 lung
T-47D breast = test system: T-47D breast
SNB-75 CNS = test system: SNB-75 CNS
SK-MEL-5 melanoma = test system: SK-MEL-5 melanoma
ACHN renal = test system: ACHN renal
MALME-3M melanoma = test system: MALME-3M melanoma
SK-MEL-2 melanoma = test system: SK-MEL-2 melanoma
OVCAR-4 ovarian = test system: OVCAR-4 ovarian
MCF7 breast = test system: MCF7 breast
786-0 renal = test system: 786-0 renal
EKVX NSCLC = test system: EKVX NSCLC
HT29 colon = test system: HT29 colon
HS 578T breast = test system: HS 578T breast
KM12 colon = test system: KM12 colon
HCT-15 colon = test system: HCT-15 colon
CCRF-CEM leukemia = test system: CCRF-CEM leukemia
UACC-257 melanoma = test system: UACC-257 melanoma
HL-60(TB) leukemia = test system: HL-60(TB) leukemia
SF-268 CNS = test system: SF-268 CNS
NCI-H226 lung = test system: NCI-H226 lung
A498 renal = test system: A498 renal
U251 CNS = test system: U251 CNS
HOP-92 NSCLC = test system: HOP-92 NSCLC
MDA-MB-231 breast = test system: MDA-MB-231 breast
MDA-MB-435 = test system: MDA-MB-435
CAKI-1 renal = test system: CAKI-1 renal
SF-295 CNS = test system: SF-295 CNS
SNB-19 CNS = test system: SNB-19 CNS
PC-3 prostate = test system: PC-3 prostate
NCI-H522 lung = test system: NCI-H522 lung
TK-10 renal = test system: TK-10 renal
OVCAR-3 ovarian = test system: OVCAR-3 ovarian
MDA-N = test system: MDA-N
OVCAR-8 ovarian = test system: OVCAR-8 ovarian
DU-145 prostate = test system: DU-145 prostate
SN12C renal = test system: SN12C renal
LOX IMVI melanoma = test system: LOX IMVI melanoma
NCI/ADR-RES ovarian = test system: NCI/ADR-RES ovarian
A549 NSCLC = test system: A549 NSCLC
HOP-62 NSCLC = test system: HOP-62 NSCLC
HCC-2998 colon = test system: HCC-2998 colon
M14 melanoma = test system: M14 melanoma
HCT-116 colon = test system: HCT-116 colon
K-562 leukemia = test system: K-562 leukemia
BT-549 breast = test system: BT-549 breast
NCI-H460 lung = test system: NCI-H460 lung
RPMI-8226 leukemia = test system: RPMI-8226 leukemia
UACC-62 melanoma = test system: UACC-62 melanoma

CC(=O)NC(C)c1ccc(N=NN2CCCC2)cc1 (stereo not drawn)
TGI (SF-539 CNS): > 100 µM
TGI (UO-31 renal): > 100 µM
TGI (OVCAR-5 ovarian): > 100 µM
TGI (IGROV1 ovarian): > 100 µM
TGI (SK-OV-3 ovarian): > 100 µM
TGI (SW-620 colon): > 100 µM
TGI (RXF 393 renal): > 100 µM
TGI (COLO 205 colon): > 100 µM
TGI (SK-MEL-28 melanoma): > 100 µM
TGI (NCI-H23 lung): > 100 µM
TGI (T-47D breast): > 100 µM
TGI (SNB-75 CNS): > 100 µM
TGI (SK-MEL-5 melanoma): > 100 µM
TGI (ACHN renal): > 100 µM
TGI (MALME-3M melanoma): > 100 µM
TGI (SK-MEL-2 melanoma): > 100 µM
TGI (OVCAR-4 ovarian): > 100 µM
TGI (MCF7 breast): > 100 µM
TGI (786-0 renal): > 100 µM
TGI (EKVX NSCLC): > 100 µM
TGI (HT29 colon): > 100 µM
TGI (HS 578T breast): > 100 µM
TGI (KM12 colon): > 100 µM
TGI (HCT-15 colon): > 100 µM
TGI (CCRF-CEM leukemia): > 100 µM
TGI (UACC-257 melanoma): > 100 µM
TGI (HL-60(TB) leukemia): > 100 µM
TGI (SF-268 CNS): > 100 µM
TGI (NCI-H226 lung): > 100 µM
TGI (A498 renal): > 100 µM
TGI (U251 CNS): > 100 µM
TGI (HOP-92 NSCLC): > 100 µM
TGI (MDA-MB-231 breast): > 100 µM
TGI (MDA-MB-435): > 100 µM
TGI (CAKI-1 renal): > 100 µM
TGI (SF-295 CNS): > 100 µM
TGI (SNB-19 CNS): > 100 µM
TGI (PC-3 prostate): > 100 µM
TGI (NCI-H522 lung): > 100 µM
TGI (TK-10 renal): > 100 µM
TGI (OVCAR-3 ovarian): > 100 µM
TGI (MDA-N): > 100 µM
TGI (OVCAR-8 ovarian): > 100 µM
TGI (DU-145 prostate): > 100 µM
TGI (SN12C renal): > 100 µM
TGI (LOX IMVI melanoma): > 100 µM
TGI (NCI/ADR-RES ovarian): > 100 µM
TGI (A549 NSCLC): > 100 µM
TGI (HOP-62 NSCLC): > 100 µM
TGI (HCC-2998 colon): > 100 µM
TGI (M14 melanoma): > 100 µM
TGI (HCT-116 colon): > 100 µM

CCOC(=O)c1nc2cc(C(F)(F)F)ccc2nc1Nc1ccc(F)cc1
TGI (SF-539 CNS): 55.9 µM
TGI (K-562 leukemia): 39.9 µM
TGI (BT-549 breast): > 100 µM
TGI (OVCAR-5 ovarian): > 100 µM
TGI (IGROV1 ovarian): > 100 µM
TGI (SK-OV-3 ovarian): > 100 µM
TGI (NCI-H460 lung): > 100 µM
TGI (SW-620 colon): > 100 µM
TGI (RXF 393 renal): > 100 µM
TGI (COLO 205 colon): > 100 µM
TGI (SK-MEL-28 melanoma): > 100 µM
TGI (NCI-H23 lung): > 100 µM
TGI (T-47D breast): > 100 µM
TGI (SNB-75 CNS): > 100 µM
TGI (SK-MEL-5 melanoma): > 100 µM
TGI (MALME-3M melanoma): > 100 µM
TGI (RPMI-8226 leukemia): 61.6 µM
TGI (SK-MEL-2 melanoma): > 100 µM
TGI (OVCAR-4 ovarian): 86.1 µM
TGI (MCF7 breast): > 100 µM
TGI (786-0 renal): > 100 µM
TGI (EKVX NSCLC): > 100 µM
TGI (HT29 colon): > 100 µM
TGI (KM12 colon): > 100 µM
TGI (HCT-15 colon): > 100 µM
TGI (CCRF-CEM leukemia): 66.2 µM
TGI (UACC-257 melanoma): > 100 µM
TGI (SF-268 CNS): > 100 µM
TGI (NCI-H226 lung): > 100 µM
TGI (A498 renal): > 100 µM
TGI (U251 CNS): > 100 µM
TGI (HOP-92 NSCLC): 49.6 µM
TGI (MDA-MB-231 breast): > 100 µM
TGI (MDA-MB-435): > 100 µM
TGI (CAKI-1 renal): > 100 µM
TGI (SF-295 CNS): > 100 µM
TGI (PC-3 prostate): > 100 µM
TGI (TK-10 renal): > 100 µM
TGI (OVCAR-3 ovarian): > 100 µM
TGI (MDA-N): > 100 µM
TGI (UACC-62 melanoma): > 100 µM
TGI (OVCAR-8 ovarian): > 100 µM
TGI (DU-145 prostate): > 100 µM
TGI (SN12C renal): > 100 µM
TGI (LOX IMVI melanoma): > 100 µM
TGI (NCI/ADR-RES ovarian): > 100 µM
TGI (A549 NSCLC): > 100 µM
TGI (HOP-62 NSCLC): > 100 µM
TGI (HCC-2998 colon): > 100 µM
TGI (M14 melanoma): > 100 µM
TGI (HCT-116 colon): > 100 µM
